Assay [1] addresses T1, Am2136 WT (Akkermansia muciniphila, UniProt B2UPR7).
T1 construct: The coding region (residue Q20-L756) of Am2136 without signal peptide was based on UniProt; 6XHis (N); made in house; host or cells: E. coli BL21 (DE3)
The experiment in a line: Nucleotide binding affinity by intrinsic fluorescence. The protocol: The nucleotide binding ability was determined on Fluorescence Spectrometer Duetta (HORIBA) by measuring the change of peak intensity. The fluorescence was excited at 286 nm and emitted at 336 nm. And the measurement was processed under 400 V voltage with 2.5 nm excitation slit and 5 nm emission slit. […] The sample was incubated at 4°C for 5 min before testing.

The target in assay [2] is T1, Am2136 WT. The experiment in a line: Enzyme activity assay (pNP-β-GlcNAc hydrolysis) regulated by nucleotides. Format: biochemical.
For the next assay, the target named is T2, Am2136 Y327F+Y331F (Akkermansia muciniphila, UniProt B2UPR7, Y327F/Y331F).
T2 sequence (B2UPR7 20-756 Y327F/Y331F): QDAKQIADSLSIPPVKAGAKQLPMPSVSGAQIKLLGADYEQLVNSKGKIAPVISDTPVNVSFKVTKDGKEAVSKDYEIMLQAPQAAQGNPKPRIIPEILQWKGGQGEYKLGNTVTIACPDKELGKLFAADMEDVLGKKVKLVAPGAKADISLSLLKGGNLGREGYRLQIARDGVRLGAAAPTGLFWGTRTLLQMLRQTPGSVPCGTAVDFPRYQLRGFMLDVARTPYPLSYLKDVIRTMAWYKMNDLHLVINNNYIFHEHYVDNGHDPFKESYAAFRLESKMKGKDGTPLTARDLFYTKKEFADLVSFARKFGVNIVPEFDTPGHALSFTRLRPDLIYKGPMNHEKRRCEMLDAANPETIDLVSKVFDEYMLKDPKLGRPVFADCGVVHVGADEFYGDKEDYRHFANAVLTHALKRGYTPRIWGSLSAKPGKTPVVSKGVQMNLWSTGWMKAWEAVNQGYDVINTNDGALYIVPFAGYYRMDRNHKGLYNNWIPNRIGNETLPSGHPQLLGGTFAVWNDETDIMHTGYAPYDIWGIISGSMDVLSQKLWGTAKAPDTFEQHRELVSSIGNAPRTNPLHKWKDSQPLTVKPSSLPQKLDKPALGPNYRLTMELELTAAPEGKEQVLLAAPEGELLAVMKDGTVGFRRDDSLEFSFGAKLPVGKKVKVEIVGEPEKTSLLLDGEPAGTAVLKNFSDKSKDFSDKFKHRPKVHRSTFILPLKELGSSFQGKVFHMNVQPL
The experiment in a line: GDP regulated enzyme activity assay, mutant. The following applies: 1 mM GDP, substrate pNP-β-GlcNAc.

For another assay, the target named is T3, Am2136 R592A (Akkermansia muciniphila, UniProt B2UPR7, R592A).
T3 sequence (B2UPR7 20-756 R592A): T2 sequence (B2UPR7 20-756 Y327F/Y331F) with F308Y, F312Y, R573A
The experiment in a line: GDP regulated enzyme activity assay, mutant. To be noted: 1 mM GDP, substrate pNP-β-GlcNAc.

For the next assay, the target named is T4, Am2136 P595A+H597A (Akkermansia muciniphila, UniProt B2UPR7, H597A/P595A).
T4 sequence (B2UPR7 20-756 P595A/H597A): T2 sequence (B2UPR7 20-756 Y327F/Y331F) with F308Y, F312Y, P576A, H578A
The experiment in a line: GDP regulated enzyme activity assay, mutant. To be noted: 1 mM GDP.

Numbering of substitutions follows the chain as printed.

T1 sequence (B2UPR7 20-756): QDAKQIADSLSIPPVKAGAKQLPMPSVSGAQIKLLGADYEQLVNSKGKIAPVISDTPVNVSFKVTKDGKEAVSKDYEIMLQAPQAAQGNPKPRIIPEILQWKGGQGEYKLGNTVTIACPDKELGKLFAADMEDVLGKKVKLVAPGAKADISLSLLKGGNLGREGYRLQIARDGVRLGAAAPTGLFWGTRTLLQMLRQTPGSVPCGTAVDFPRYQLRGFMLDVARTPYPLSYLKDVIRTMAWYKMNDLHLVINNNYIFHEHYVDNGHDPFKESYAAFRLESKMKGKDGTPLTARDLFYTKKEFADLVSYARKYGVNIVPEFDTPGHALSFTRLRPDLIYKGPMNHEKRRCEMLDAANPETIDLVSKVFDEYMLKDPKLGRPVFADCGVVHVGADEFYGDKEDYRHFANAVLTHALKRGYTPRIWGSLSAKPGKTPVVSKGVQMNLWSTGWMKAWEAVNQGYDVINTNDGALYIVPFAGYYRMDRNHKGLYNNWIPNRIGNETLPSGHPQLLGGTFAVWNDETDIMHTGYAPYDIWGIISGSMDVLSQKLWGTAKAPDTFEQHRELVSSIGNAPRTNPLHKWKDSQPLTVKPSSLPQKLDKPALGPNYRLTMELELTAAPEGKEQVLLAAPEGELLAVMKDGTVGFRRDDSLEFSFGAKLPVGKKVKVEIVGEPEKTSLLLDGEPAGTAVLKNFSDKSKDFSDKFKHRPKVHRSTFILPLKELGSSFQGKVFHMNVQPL

In the case of `Nc1nc2c(ncn2[C@@H]2O[C@H](COP(=O)(O)OP(=O)(O)O)[C@@H](O)[C@H]2O)c(=O)[nH]1` [GDP], the equilibrium dissociation constant (Kd) on Am2136 WT [1] (Am2136 WT, fluorescence ex 286 nm/em 336 nm) turned out to be 116 µM; on Am2136 WT [1] (WT dialyzed (EDTA treated)) it was 114 ± 5.22 µM; on Am2136 WT [1] (WT dialyzed + Ca^2+) it was 117 ± 4.37 µM; on Am2136 WT [1] (WT dialyzed + Mg^2+), 118 ± 5.85 µM. The “maximal activation of Am2136” value on Am2136 WT [2] (1 mM GDP) was “up to twofold”. Besides, the “effect on Am2136 hydrolysis activity” value on Am2136 WT [2] (GDP 0–2.65 mM, substrate pNP-β-GlcNAc) was “concentration-dependent enhancement”. In addition, the Vmax at Am2136 WT [2] (WT, 1 mM nucleotide, substrate pNP-β-GlcNAc, 37°C) is 442 ± 7 µmol/min; at Am2136 Y327F+Y331F it was 473 ± 6 µmol/min; at Am2136 R592A, 442 ± 5 µmol/min; on Am2136 P595A+H597A (P595A+H597A, substrate pNP-β-GlcNAc) it was 447 ± 4 µmol/min. On Am2136 P595A+H597A (P595A/H597A), the “increase of kcat/Km with versus without GDP” value is given as “roughly two-fold increase”.
